Several values for one entry are separate records, joined by “and”; a condition that tells them apart may be missing. Equal values may be shown once. Inconclusive results are not listed.
System: CD8F1 mice, subcutaneous mammary adenocarcinoma, T/C%
Test: NCI In Vivo Anticancer Drug Screen. Data for tumor model Mammary Adenocarcinoma CD8F1 (subcutaneous) in CD8F1
Details: higher = larger tumour
In short: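 Transplantable tumors were established in mice, animals were dosed with compound or vehicle, and survival or tumor size was then measured in both groups. The treated result was divided by the control result.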

[1] = endpoint: median tumor weight (est.), dose: 6.25 mg/kg/injection, schedule: Q07DX005 (ip), vehicle: saline
[2] = endpoint: median tumor weight (est.), dose: 12.5 mg/kg/injection, schedule: Q07DX005 (ip), vehicle: saline
[3] = endpoint: median tumor weight (est.), dose: 25.0 mg/kg/injection, schedule: Q07DX005 (ip), vehicle: saline
[4] = endpoint: median tumor weight change, dose: 2.5 mg/kg/injection, schedule: Q01DX001 (ip), vehicle: saline
[5] = endpoint: median tumor weight change, dose: 10.0 mg/kg/injection, schedule: Q01DX001 (ip), vehicle: saline
[6] = endpoint: median tumor weight (est.), dose: 12.5 mg/kg/injection, schedule: Q07DX005 (ip), vehicle: Klucel (hydroxypropylcellulose) (HPC)
[7] = endpoint: median tumor weight (est.), dose: 25.0 mg/kg/injection, schedule: Q07DX005 (ip), vehicle: Klucel (hydroxypropylcellulose) (HPC)
[8] = endpoint: median tumor weight (est.), dose: 50.0 mg/kg/injection, schedule: Q07DX005 (ip), vehicle: Klucel (hydroxypropylcellulose) (HPC)

CN1C(=O)CC2(CCN(CCCC(=O)c3ccc(F)cc3)CC2)C1=O
T/C [1]: 112 % of control | T/C (endpoint: median tumor weight (est.), dose: 6.25 mg/kg/injection, schedule: Q07DX005 (ip), vehicle: suspension in saline): 52 % of control | T/C [2]: 62 % of control | T/C (endpoint: median tumor weight (est.), dose: 12.5 mg/kg/injection, schedule: Q07DX005 (ip), vehicle: suspension in saline): 108 % of control | T/C [3]: 170 % of control | T/C (endpoint: median tumor weight (est.), dose: 50.0 mg/kg/injection, schedule: Q07DX005 (ip), vehicle: saline): 117 % of control | T/C (endpoint: median tumor weight (est.), dose: 50.0 mg/kg/injection, schedule: Q07DX005 (ip), vehicle: suspension in saline): 258 % of control | T/C (endpoint: median tumor weight (est.), dose: 100.0 mg/kg/injection, schedule: Q07DX005 (ip), vehicle: suspension in saline): 122 % of control

C/C=C/C=C1/OC(C)=C(C(C)=O)C1=O
T/C (endpoint: median tumor weight change, dose: 125.0 mg/kg/injection, schedule: Q01DX001 (ip), vehicle: saline with Tween-80): 94 % of control and 104 % of control | T/C (endpoint: median tumor weight change, dose: 250.0 mg/kg/injection, schedule: Q01DX001 (ip), vehicle: saline with Tween-80): 64 % of control

CC1OC(OC2CC(O)(C(=O)CO)Cc3c(O)c4c(c(O)c32)C(=O)c2ccccc2C4=O)CC(N)C1O (stereo not drawn)
T/C (endpoint: mean tumor weight, dose: 0.12 mg/kg/injection, schedule: Q07DX006 (ip), vehicle: saline): 40 % of control | T/C (endpoint: mean tumor weight, dose: 0.5 mg/kg/injection, schedule: Q07DX006 (ip), vehicle: saline): 1 % of control | T/C (endpoint: median tumor weight change, dose: 0.31 mg/kg/injection, schedule: Q01DX001 (ip), vehicle: water): 67 % of control | T/C (endpoint: median tumor weight change, dose: 0.62 mg/kg/injection, schedule: Q01DX001 (ip), vehicle: water): 37 % of control | T/C (endpoint: median tumor weight change, dose: 1.25 mg/kg/injection, schedule: Q01DX001 (ip), vehicle: water): 26 % of control and 28 % of control

Nc1ncnc2c1ncn2C1OC(CO)CC1O (stereo not drawn)
T/C (endpoint: median tumor weight (est.), dose: 37.5 mg/kg/injection, schedule: Q07DX005 (ip), vehicle: Klucel (hydroxypropylcellulose) (HPC)): 102 % of control | T/C (endpoint: median tumor weight (est.), dose: 75.0 mg/kg/injection, schedule: Q07DX005 (ip), vehicle: Klucel (hydroxypropylcellulose) (HPC)): 88 % of control

COc1cc(Cc2nccc3cc(OC)c(OC)cc23)c(C(C)=O)cc1OC
T/C (endpoint: median tumor weight change, dose: 62.0 mg/kg/injection, schedule: Q01DX001 (ip), vehicle: saline): 93 % of control | T/C (endpoint: median tumor weight change, dose: 62.5 mg/kg/injection, schedule: Q01DX001 (ip), vehicle: saline): 41 % of control | T/C (endpoint: median tumor weight change, dose: 62.5 mg/kg/injection, schedule: Q01DX001 (ip), vehicle: suspension in saline): 54 % of control | T/C (endpoint: median tumor weight change, dose: 125.0 mg/kg/injection, schedule: Q01DX001 (ip), vehicle: saline): 33 % of control and 35 % of control | T/C (endpoint: median tumor weight change, dose: 125.0 mg/kg/injection, schedule: Q01DX001 (ip), vehicle: suspension in saline): 57 % of control | T/C (endpoint: median tumor weight change, dose: 250.0 mg/kg/injection, schedule: Q01DX001 (ip), vehicle: saline): -6 % of control

COc1c(O)c2c(c3cc(C(=O)N4CCc5c4c(O)c(OC)c4[nH]c(C(=O)N6CC7CC78C6=CC(=O)c6[nH]cc(C)c68)cc54)[nH]c13)CCN2C(N)=O (stereo not drawn)
T/C (endpoint: median tumor weight (est.), dose: 6.25 micrograms/kg/injection, schedule: Q07DX005 (ip), vehicle: DMSO): 97 % of control | T/C (endpoint: median tumor weight (est.), dose: 12.5 micrograms/kg/injection, schedule: Q07DX005 (ip), vehicle: DMSO): 42 % of control

C1CN(P2(N3CC3)=NP(N3CC3)(N3CC3)=NP(N3CC3)(N3CC3)=N2)CCO1 (stereo not drawn)
T/C [1]: 39 % of control | T/C [2]: 44 % of control | T/C [3]: 6 % of control

Nc1ncnc2c1ncn2C1C=C(CO)C(O)C1O (stereo not drawn)
T/C [4]: 63 % of control | T/C (endpoint: median tumor weight change, dose: 2.5 mg/kg/injection, schedule: Q01DX001 (ip), vehicle: suspension in saline): 113 % of control | T/C (endpoint: median tumor weight change, dose: 5.0 mg/kg/injection, schedule: Q01DX001 (ip), vehicle: saline): 107 % of control | T/C (endpoint: median tumor weight change, dose: 5.0 mg/kg/injection, schedule: Q01DX001 (ip), vehicle: suspension in saline): 115 % of control | T/C [5]: 100 % of control | T/C (endpoint: median tumor weight change, dose: 20.0 mg/kg/injection, schedule: Q01DX001 (ip), vehicle: saline): 86 % of control | T/C (endpoint: median tumor weight change, dose: 20.0 mg/kg/injection, schedule: Q01DX001 (ip), vehicle: suspension in saline): 39 % of control | T/C (endpoint: median tumor weight change, dose: 40.0 mg/kg/injection, schedule: Q01DX001 (ip), vehicle: saline): 40 % of control

C1CC[N-]CC1.[Cl][Pt+2][Cl].[NH-]C1CC1
T/C (endpoint: median tumor weight change, dose: 31.0 mg/kg/injection, schedule: Q01DX001 (ip), vehicle: water): 116 % of control | T/C (endpoint: median tumor weight change, dose: 62.0 mg/kg/injection, schedule: Q01DX001 (ip), vehicle: water): 121 % of control | T/C (endpoint: median tumor weight change, dose: 62.5 mg/kg/injection, schedule: Q01DX001 (ip), vehicle: distilled water + Tween-80): 26 % of control | T/C (endpoint: median tumor weight change, dose: 125.0 mg/kg/injection, schedule: Q01DX001 (ip), vehicle: water): 21 % of control

Cc1ccc(C(=O)[O][Hg][CH2]C2COC([CH2][Hg][O]C(=O)c3ccc(C)cc3)CO2)cc1 (stereo not drawn)
T/C (endpoint: median tumor weight (est.), dose: 6.25 mg/kg/injection, schedule: Q07DX005 (ip), vehicle: Klucel (hydroxypropylcellulose) (HPC)): 60 % of control | T/C [6]: 72 % of control | T/C [7]: 117 % of control | T/C [8]: 57 % of control | T/C (endpoint: median tumor weight (est.), dose: 100.0 mg/kg/injection, schedule: Q07DX005 (ip), vehicle: Klucel (hydroxypropylcellulose) (HPC)): 162 % of control

CC12CC(C(=O)O)C3(O)CC(C)(C1)CC(C)(C2)C3 (stereo not drawn) (tested in a mixture with another compound)
T/C [6]: 93 % of control | T/C [7]: 78 % of control | T/C [8]: 56 % of control | T/C (endpoint: median tumor weight (est.), dose: 200.0 mg/kg/injection, schedule: Q07DX005 (ip), vehicle: Klucel (hydroxypropylcellulose) (HPC)): 87 % of control | T/C (endpoint: median tumor weight (est.), dose: 400.0 mg/kg/injection, schedule: Q07DX005 (ip), vehicle: Klucel (hydroxypropylcellulose) (HPC)): 71 % of control

Nc1ccc(C(OC(=O)c2cc3ccccc3c(Cc3c(O)c(C(=O)OC(c4ccc(N)cc4)(c4ccc(N)cc4)c4ccc(N)cc4)cc4ccccc34)c2O)(c2ccc(N)cc2)c2ccc(N)cc2)cc1
T/C (endpoint: median tumor weight change, dose: 6.25 mg/kg/injection, schedule: Q01DX001 (ip), vehicle: saline with Tween-80): 73 % of control | T/C (endpoint: median tumor weight change, dose: 50.0 mg/kg/injection, schedule: Q01DX001 (ip), vehicle: saline with Tween-80): 97 % of control | T/C (endpoint: median tumor weight change, dose: 62.5 mg/kg/injection, schedule: Q01DX001 (ip), vehicle: saline with Tween-80): 61 % of control

O=c1cc(CCl)[nH]nc1CCl
T/C (endpoint: median tumor weight (est.), dose: 3.12 mg/kg/injection, schedule: Q07DX005 (ip), vehicle: saline with Tween-80): 86 % of control and 88 % of control | T/C (endpoint: median tumor weight (est.), dose: 6.25 mg/kg/injection, schedule: Q07DX005 (ip), vehicle: saline with Tween-80): 96 % of control and 103 % of control | T/C (endpoint: median tumor weight (est.), dose: 12.5 mg/kg/injection, schedule: Q07DX005 (ip), vehicle: saline with Tween-80): 92 % of control and 106 % of control | T/C (endpoint: median tumor weight (est.), dose: 50.0 mg/kg/injection, schedule: Q07DX005 (ip), vehicle: saline with Tween-80): 55 % of control

CO[C@@]12[C@H](COC(N)=O)C3=C(C(=O)C(C)=C(N)C3=O)N1C[C@@H]1N[C@@H]12
T/C (endpoint: median tumor weight (est.), dose: 0.37 mg/kg/injection, schedule: Q07DX006 (ip), vehicle: saline): 63 % of control | T/C (endpoint: median tumor weight (est.), dose: 0.75 mg/kg/injection, schedule: Q07DX006 (ip), vehicle: saline): 47 % of control | T/C (endpoint: median tumor weight (est.), dose: 1.5 mg/kg/injection, schedule: Q07DX006 (ip), vehicle: saline): 27 % of control

COC(=O)C[C@](O)(CCC(C)(C)O)C(=O)O[C@@H]1C(OC)=C[C@]23CCCN2CCc2cc4c(cc2[C@H]13)OCO4
T/C (endpoint: median tumor weight change, dose: 1.25 mg/kg/injection, schedule: Q01DX001 (ip), vehicle: saline): 80 % of control and 96 % of control | T/C [4]: 89 % of control and 94 % of control | T/C [5]: 68 % of control

Source: PubChem BioAssay AID220 (DTP/NCI, 2004)
